Measurements published in patent US20220330549A1, “USE OF N-BENZYLBENZAMIDE-BASED COMPOUND AS HERBICIDE” (Northwest A&F University, priority 2020, published 2022).

What was measured:
Type in all cases: in vivo
Amaranthus retroflexus [1] = assay: Herbicidal activity test for indoor pre-emergence soil treatment; set-up: key: 1-9 levels; higher = more weed remaining vs blank control; conditions: 150 g a.i./ha, visual inspection 21 days after treatment
Method in brief: (§1)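 Compounds were formulated as 10% emulsifiable concentrates and sprayed onto the soil 24 h after sowing, at 150 g(a.i.)/ha. Soil was sandy loam (≤2% organic matter), with seeds under 0.5–2.0 cm cover, per NY/T 1155.3-2006. Visual 1–9 ratings relative to blank control were made after 21 days.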

Digitaria sanguinalis [2] = assay: as above; set-up: key: 1-9 levels; higher = more weed remaining vs blank control; conditions: 150 g a.i./ha, visual inspection 21 days after treatment
Method in brief: as §1

green bristlegrass [3] = assay: as above; set-up: key: level 1-9; higher = more weed remaining vs blank control; conditions: 150 g a.i./ha, visual inspection 21 days after treatment
Method in brief: as §1

Barnyard grass [4] = assay: as above; set-up: key: level 1-9; higher = more weed remaining vs blank control; conditions: 150 g a.i./ha, visual inspection 21 days after treatment
Method in brief: as §1

Piemarker [5] = assay: as above; set-up: key: level 1-9; higher = more weed remaining vs blank control; conditions: 150 g a.i./ha, visual inspection 21 days after treatment
Method in brief: as §1

Humulus scandens [6] = assay: as above; conditions: 150 g a.i./ha, visual inspection 21 days after treatment
Method in brief: as §1

nutgrass flatsedge = assay: Field test for weed control in a corn field; conditions: 150 g a.i./ha, after treatment
Method in brief: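 A corn field efficacy trial following GB/T 17980.42-2000 assessed post-emergence control of nutgrass flatsedge. Test compounds were formulated as 10% emulsifiable concentrates, diluted in water, and sprayed at 150 g(a.i.)/ha when the corn had 2 to 5 leaves. Each treatment had 4 replicates on 20 m^2 plots. Herbicidal activity was graded on a 1-9 scale by damage symptoms and severity.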

Acalypha australis = assay: Field test for weed control in a corn field; conditions: 150 g a.i./ha, after treatment
Method in brief: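 Post-emergence field trial in a corn field following GB/T 17980.42-2000. Test compounds were formulated as 10% emulsifiable concentrates, diluted in water, and sprayed at 150 g(a.i.)/ha when corn had 2 to 5 leaves, with 4 replicates on 20 m^2 plots. Mesotrione 25% oil dispersion served as the control agent. Weed control was scored on a 1-9 scale.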

Amaranthus retroflexus [7] = assay: Field test for weed control in a corn field; conditions: 150 g a.i./ha, 30 days after treatment
Method in brief: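 Field efficacy trial in a corn field following GB/T 17980.42-2000. Test compounds were formulated as 10% emulsifiable concentrates, diluted in water and sprayed post-emergence when corn had 2 to 5 leaves. Each treatment covered 20 m^2 with 4 replicates. A 25% mesotrione oil dispersion served as control. Damage to Amaranthus retroflexus was rated on a 1-9 scale against untreated blank plots.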

green bristlegrass [8] = assay: Field test for weed control in a corn field; conditions: 150 g a.i./ha, after treatment
Method in brief: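 Post-emergence weed control was tested in a corn field following GB/T 17980.42-2000. When the corn had 2 leaves to 5 leaves after sowing, 10% emulsifiable concentrates diluted in water were sprayed at 150 g(a.i.)/ha on 20 m^2 plots, four replicates per treatment. Effects on green bristlegrass were scored on a 1-9 damage scale relative to the blank control area.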

goosegrass = assay: Field test for weed control in a corn field; conditions: 150 g a.i./ha, after treatment
Method in brief: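 Weed control efficacy against goosegrass was tested in a corn field following GB/T 17980.42-2000. Compounds formulated as 10% emulsifiable concentrates were diluted in water and sprayed post-emergence at 150 g(a.i.)/ha when corn had 2 to 5 leaves, with 4 replicates of 20 m^2 plots. Herbicidal activity was rated on a 1-9 scale by damage symptoms and severity.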

Solanum nigrum = assay: Field test for weed control in a corn field; conditions: 150 g a.i./ha, 30 days after treatment
Method in brief: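 Post-emergence weed control was tested in a corn field following GB/T 17980.42-2000. Compounds were made into 10% emulsifiable concentrates, diluted in water and sprayed at 150 g(a.i.)/ha when corn had 2 to 5 leaves after sowing, in 20 m^2 plots with 4 replicates. Effects on Solanum nigrum were graded on a 1-9 scale relative to the blank control area.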

Barnyard grass [9] = assay: Field test for weed control in a corn field; conditions: 150 g a.i./ha, 30 days after treatment
Method in brief: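 Corn-field efficacy trial following GB/T 17980.42-2000. Test compounds were formulated as 10% emulsifiable concentrates, diluted in water and sprayed post-emergence at 150 g(a.i.)/ha when corn had 2 to 5 leaves. Each treatment was replicated 4 times on 20 m^2 plots. Barnyard grass control was rated on a 1-9 damage scale.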

Portulaca oleracea = assay: Field test for weed control in a corn field; conditions: 150 g a.i./ha, after treatment
Method in brief: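 Field efficacy trial in corn following GB/T 17980.42-2000. Test compounds were prepared as 10% emulsifiable concentrates, diluted in water, and sprayed at 150 g(a.i.)/ha when corn had 2 to 5 leaves after sowing. Plots were 20 m^2 with 4 replicates per treatment. Herbicidal activity was scored on a 1-9 scale from weed damage symptoms and severity.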

Digitaria sanguinalis [10] = assay: Field test for weed control in a corn field; conditions: 150 g a.i./ha, after treatment
Method in brief: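 Field trial in a corn field following GB/T 17980.42-2000. Test compounds were formulated as 10% emulsifiable concentrates, diluted in water and sprayed post-emergence at 150 g(a.i.)/ha when corn had 2 to 5 leaves, with 4 replicates on 20 m^2 plots. Control of Digitaria sanguinalis was scored on a 1-9 scale based on weed damage relative to the untreated blank area.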

Chenopodium album = assay: Field test for weed control in a corn field; conditions: 150 g a.i./ha, after treatment
Method in brief: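 A corn-field efficacy trial following GB/T 17980.42-2000 tested post-emergence control of Chenopodium album. Test compounds formulated as 10% emulsifiable concentrates were diluted in water and sprayed at 150 g(a.i.)/ha when the corn had 2 leaves to 5 leaves, on 20 m^2 plots with 4 replicates. Herbicidal activity was rated on a 1-9 scale by damage symptoms and severity.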

Convolvulus arvensis = assay: Field test for weed control in a corn field; conditions: 150 g a.i./ha, after treatment
Method in brief: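 Field trial of weed control against Convolvulus arvensis in corn, run following GB/T 17980.42-2000. Test agents were formulated as 10% emulsifiable concentrates and sprayed in water at 150 g(a.i.)/ha when corn plants had 2 to 5 leaves. Each treatment was replicated 4 times on 20 m^2 plots, and 25% mesotrione oil dispersion served as the control agent.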

Broadleaf weed = assay: Post-emergence herbicidal activity test in a paddy field; set-up: key: level scale; higher level = more weed left vs blank control; conditions: 150 g a.i./ha (penoxsulam control 250 g(a.i.)/h)
Method in brief: (§2)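 Efficacy was visually estimated 15 and 30 days after spraying, grading weed coverage relative to an untreated neighbouring plot (level 2 = 0 to 2.5%, level 9 = 67.6 to 100%). Treatments were 150 g(a.i.)/ha from 10% emulsifiable concentrates applied at the 4-5 leaf rice stage, four repeats of 50 m^2 each.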

Gramineae = assay: as above; set-up: key: level scale; higher level = more weed left vs blank control; conditions: 150 g a.i./ha (penoxsulam control 250 g(a.i.)/h)
Method in brief: as §2

Cyperaceae = assay: as above; set-up: key: level scale; higher level = more weed left vs blank control; conditions: 150 g a.i./ha (penoxsulam control 250 g(a.i.)/h)
Method in brief: as §2

Amaranthus retroflexus [11] = assay: Herbicidal activity test for indoor post-emergence spraying on stems and leaves; set-up: key: grade level by weed remaining vs blank control, e.g. 5 = 10.1-15%; conditions: 150 g a.i./ha, visual inspection 21 days after treatment
Method in brief: (§3)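 Visual inspection at 21 days after treatment gave a level rating, each level defined as a percentage band of the weed remaining in the blank control area. Plants were sprayed on stems and leaves after emergence, following NY/T 1155.4-2006.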

green bristlegrass [12] = assay: as above; set-up: key: grade level by weed remaining vs blank control, e.g. 5 = 10.1-15%; conditions: 150 g a.i./ha, visual inspection 21 days after treatment
Method in brief: as §3

Barnyard grass [13] = assay: as above; set-up: key: grade level by weed remaining vs blank control, e.g. 5 = 10.1-15%; conditions: 150 g a.i./ha, visual inspection 21 days after treatment
Method in brief: as §3

Digitaria sanguinalis [14] = assay: as above; set-up: key: grade level by weed remaining vs blank control, e.g. 5 = 10.1-15%; conditions: 150 g a.i./ha, visual inspection 21 days after treatment
Method in brief: as §3

Piemarker [15] = assay: as above; set-up: key: grade level by weed remaining vs blank control, e.g. 5 = 10.1-15%; conditions: 150 g a.i./ha, visual inspection 21 days after treatment
Method in brief: as §3

Humulus scandens [16] = assay: as above; set-up: key: grade level by weed remaining vs blank control, e.g. 5 = 10.1-15%; conditions: 150 g a.i./ha, visual inspection 21 days after treatment
Method in brief: as §3

Cc1ccc(CNC(=O)c2cccc(C)c2)cc1 [Compound B15]
Herbicidal Activity Amaranthus retroflexus (Amaranthus retroflexus [1]): 2 (equivalent to 0 to 2.5% of the weed in the blank control area)
Herbicidal Activity Digitaria sanguinalis (Digitaria sanguinalis [2]): 1
Herbicidal Activity Green bristlegrass (green bristlegrass [3]): 2 (equivalent to 0 to 2.5% of the weed in the blank control area)
Herbicidal Activity Barnyard grass (Barnyard grass [4]): 1
Herbicidal Activity Piemarker (Piemarker [5]): 1
Herbicidal Activity Humulus scandens (Humulus scandens [6]): 3 (equivalent to 2.6 to 5% of the weed in the blank control area)
Post-emergence weed control effect, Nutgrass flatsedge (nutgrass flatsedge): 2 (equivalent to 0 to 2.5% of the weed in the blank control area)
Post-emergence weed control effect, Acalypha australis (Acalypha australis): 1
Post-emergence weed control effect, Amaranthus retroflexus (Amaranthus retroflexus [7]): 1
Post-emergence weed control effect, Green bristlegrass (green bristlegrass [8]): 2 (equivalent to 0 to 2.5% of the weed in the blank control area)
Post-emergence weed control effect, Goose grass (goosegrass): 2 (equivalent to 0 to 2.5% of the weed in the blank control area)
Post-emergence weed control effect, Solanum nigrum (Solanum nigrum): 1
Post-emergence weed control effect, Barnyard grass (Barnyard grass [9]): 1
Post-emergence weed control effect, Portulaca oleracea (Portulaca oleracea): 1
Post-emergence weed control effect, Digitaria sanguinalis (Digitaria sanguinalis [10]): 2 (equivalent to 0 to 2.5% of the weed in the blank control area)
Post-emergence weed control effect, Chenopodium album (Chenopodium album): 1
Post-emergence weed control effect, Convolvulus arvensis (Convolvulus arvensis): 2 (equivalent to 0 to 2.5% of the weed in the blank control area)
Herbicidal activity 15 days after treatment Broadleaf weed (Broadleaf weed): 1
Herbicidal activity 30 days after treatment Broadleaf weed (Broadleaf weed): 1
Herbicidal activity 15 days after treatment Gramineae (Gramineae): 2 (equivalent to 0 to 2.5% of the weed in the blank control area)
Herbicidal activity 30 days after treatment Gramineae (Gramineae): 1
Herbicidal activity 15 days after treatment Cyperaceae (Cyperaceae): 1
Herbicidal activity 30 days after treatment Cyperaceae (Cyperaceae): 2 (equivalent to 0 to 2.5% of the weed in the blank control area)
Herbicidal Activity Amaranthus retroflexus (Amaranthus retroflexus [11]): 1
Herbicidal Activity Green bristlegrass (green bristlegrass [12]): 1
Herbicidal Activity Barnyard grass (Barnyard grass [13]): 1
Herbicidal Activity Digitaria sanguinalis (Digitaria sanguinalis [14]): 1
Herbicidal Activity Piemarker (Piemarker [15]): 1
Herbicidal Activity Humulus scandens (Humulus scandens [16]): 1

Cc1cccc(C(=O)NCc2cccc(F)c2)n1 [Compound B22]
Herbicidal Activity Amaranthus retroflexus (Amaranthus retroflexus [1]): 1
Herbicidal Activity Digitaria sanguinalis (Digitaria sanguinalis [2]): 1
Herbicidal Activity Green bristlegrass (green bristlegrass [3]): 1
Herbicidal Activity Barnyard grass (Barnyard grass [4]): 1
Herbicidal Activity Piemarker (Piemarker [5]): 1
Herbicidal Activity Humulus scandens (Humulus scandens [6]): 2 (equivalent to 0 to 2.5% of the weed in the blank control area)
Post-emergence weed control effect, Nutgrass flatsedge (nutgrass flatsedge): 2 (equivalent to 0 to 2.5% of the weed in the blank control area)
Post-emergence weed control effect, Acalypha australis (Acalypha australis): 1
Post-emergence weed control effect, Amaranthus retroflexus (Amaranthus retroflexus [7]): 1
Post-emergence weed control effect, Green bristlegrass (green bristlegrass [8]): 1
Post-emergence weed control effect, Goose grass (goosegrass): 2 (equivalent to 0 to 2.5% of the weed in the blank control area)
Post-emergence weed control effect, Solanum nigrum (Solanum nigrum): 2 (equivalent to 0 to 2.5% of the weed in the blank control area)
Post-emergence weed control effect, Barnyard grass (Barnyard grass [9]): 1
Post-emergence weed control effect, Portulaca oleracea (Portulaca oleracea): 1
Post-emergence weed control effect, Digitaria sanguinalis (Digitaria sanguinalis [10]): 2 (equivalent to 0 to 2.5% of the weed in the blank control area)
Post-emergence weed control effect, Chenopodium album (Chenopodium album): 1
Post-emergence weed control effect, Convolvulus arvensis (Convolvulus arvensis): 1
Herbicidal activity 15 days after treatment Broadleaf weed (Broadleaf weed): 1
Herbicidal activity 30 days after treatment Broadleaf weed (Broadleaf weed): 1
Herbicidal activity 15 days after treatment Gramineae (Gramineae): 1
Herbicidal activity 30 days after treatment Gramineae (Gramineae): 1
Herbicidal activity 15 days after treatment Cyperaceae (Cyperaceae): 1
Herbicidal activity 30 days after treatment Cyperaceae (Cyperaceae): 1
Herbicidal Activity Amaranthus retroflexus (Amaranthus retroflexus [11]): 1
Herbicidal Activity Green bristlegrass (green bristlegrass [12]): 1
Herbicidal Activity Barnyard grass (Barnyard grass [13]): 1
Herbicidal Activity Digitaria sanguinalis (Digitaria sanguinalis [14]): 1
Herbicidal Activity Piemarker (Piemarker [15]): 1
Herbicidal Activity Humulus scandens (Humulus scandens [16]): 1
